Laboratory results reported in patent publication US9061029B2, “Method of treating proliferative disorders and other pathological conditions mediated by Bcr-Abl, c-Kit, DDR1, DDR2 or PDGF-R kinase activity” (Novartis AG, priority 2009, dated 2015).
Like-named read-outs stand apart in the source and are kept apart here.

Experiments:
[1] = concurrent intake of grapefruit juice; cited from earlier work
[2] = administration of nilotinib in a fruit preparation, human subjects
Description: All treatments were administered with 240 mL of water, in the morning, after an overnight fast of at least 10 hours. Subjects continued to fast until 4 hours after administration. […] Consumption of grapefruit, grapefruit juice, or any caffeinated beverages within 48 hours of study initiation was prohibited.
At each time point, 2.5 mL of whole blood was drawn using a Serum Separator Vacutainer® (Becton, Dickinson and Company, Franklin Lakes, N.J., USA) tube. The tube was allowed to stand vertically at room temperature for 30 minutes prior to centrifugation at 5° C. for 10 minutes at 1100 g. Immediately after centrifugation, the upper serum sample was transferred and stored frozen at ≦−15° C. until shipped to the analytical site for sample analyses.
The MTBE layer was transferred, evaporated to dryness, and reconstituted with 400 μl of an acetonitrile and 0.2% formic acid mixture (40:60, v/v). Chromatography was carried out using a Phenomenex Synergi™ Polar-RP column (particle size 4 μm, 50 mm×2 mm i.d.) (Phenomenex, Inc, Torrance, Calif.) held at room temperature. Elution of the analytes was performed using a isocratic elution at a flow rate of 0.5 mL/min with mobile phases of 0.2% formic acid in 10 mM aqueous ammonium formate: 0.2% formic acid in acetonitrile (60:40, v/v).

[3] = 400 mg oral capsule, cited from earlier work
[4] = light breakfast given 30 minutes prior to dosing

Cc1cn(-c2cc(NC(=O)c3ccc(C)c(Nc4nccc(-c5cccnc5)n4)c3)cc(C(F)(F)F)c2)cn1 [nilotinib, 4-methyl-3-[[4-(3-pyridinyl)-2-pyrimidinyl]amino]-N-[5-(4-methyl-1H-imidazol-1-yl)-3-(trifluoromethyl)-phenyl]benzamide]
AUC increase [1]: 29% | Cmax increase [1]: 60% | safety and tolerability [2]: safe and well tolerated | increase in Cmax ([3]; after a high fat breakfast): 112% | increase in total exposure (AUC0-t) ([3]; after a high fat breakfast): 82% | increase in Cmax [3, 4]: 55% | increase in total exposure (AUC0-t) [3, 4]: 29%
